We go through one molecule from PMC4220732 (Frontiers in Cellular and Infection Microbiology, 2014).

This assay addresses T1, PefR (GAS PefR) (Streptococcus pyogenes, UniProt Q9A1K6).
T1 construct: gene SPy_0228; full ORF, N-terminal 6xHis tag (pRham N-His, pAJS11), tag cleavage not mentioned; expressed in E. coli (E. cloni 10G); as purified carries some heme
Kind of assay: UV-visible absorbance titration at […] nm, linear fit. Type of assay: binding.

T1 sequence (Q9A1K6 entry or part of it): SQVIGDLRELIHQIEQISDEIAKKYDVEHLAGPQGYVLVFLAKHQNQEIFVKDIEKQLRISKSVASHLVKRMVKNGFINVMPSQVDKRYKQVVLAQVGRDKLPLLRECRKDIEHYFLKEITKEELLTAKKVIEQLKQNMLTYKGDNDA

For the molecule `C=CC1=C(C)c2cc3[nH]c(cc4nc(cc5[nH]c(cc1n2)c(C)c5CCC(=O)O)C(CCC(=O)O)=C4C)c(C)c3C=C` [PPIX], the equilibrium dissociation constant (Kd) is 9 µM.
